Legend:
[1] = target: T1, amyloid β protein in the brain section of an Alzheimer disease patient (Homo sapiens, UniProt P05067); assay: Staining test on a brain section of an Alzheimer disease patient: amyloid β protein; assay type: binding; conditions: 100 μM solution in 50% ethanol, 10 minutes, paraffin brain section
T1 construct: from tissue; host or cells: paraffin-embedded temporal lobe and hippocampus of Alzheimer disease patients
Summary of the method: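 Deparaffinized 6 or 8 μm temporal lobe/hippocampus sections from Alzheimer and normal senile brains, autofluorescence quenched with KMnO4 then K2S2O5/oxalic acid, stained 10 min with 100 μM compound in 50% ethanol and imaged by fluorescence microscopy. Amyloid β immunostaining with 6F/3D antibody and ABC/DAB detection used for comparison.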

[2] = Brain Permeability Test Through HPLC; assay type: in vivo; conditions: mice, 2 minutes after intravenous administration
Procedure: A compound of the invention was intravenously administered to mice, and tested for its in-vivo brain permeability in the mice.
(1) Slc:ICR mice (by Nippon SLC) (body weight, 30 to 40 g; n=3) were used.
(2) A test compound was dissolved in a mixture of 5% Tween 80-5% ethyl alcohol-5% 1 N HCl-physiological saline water, and injected into the test mouse via its tail vein. Two minutes after the administration, the blood was collected from the test mouse under ether anesthesia via its abdominal aorta using a heparin-steeped syringe, and the brain material was collected from it.
(3) After collected, the blood was centrifuged at 4° C. and 14,000 rpm for 10 minutes, and the supernatant was stored at −80° C. as plasma. After collected, the brain material (including the cerebellum) was stored at −80° C.
(4) 0.3 ml of acetonitrile was added to 0.1 ml of the plasma, then vortexed, and centrifuged at 4° C. and under 10,000 G for 5 minutes. After centrifuged, 0.2 ml of the resulting supernatant was transferred into Mini-Uniprep (Whatman), then 0.2 ml of 20 mM phosphate buffer was added to it and filtered. 0.2 ml of the resulting filtrate was analyzed through HPLC (Shiseido Nanospace SI-2; pump, 3001; UV-VIS detector, 3002; column thermostat, 3004; fluorescence detector, 3013).
(5) 2 ml of methanol was added to the brain, homogenized, and centrifuged at 4° C. and 3000 or 4000 rpm for 10 minutes. After centrifuged, 500 μl of the resulting supernatant was diluted 10-fold with 20 mM phosphate buffer. (i) 2 to 3 ml of acetonitrile, (ii) 2 to 5 ml of methanol and (iii) 4 to 6 ml of ultra-pure water were led through a cartridge for solid-phase extraction (J. T. Baker Speedisk) in that order, and the 10-fold diluted supernatant solution was led through it. Via an empty syringe, air was applied to the cartridge for solid-phase extraction, two or three times to remove water, and then this was eluted with about 500 μl of acetonitrile or methanol, and the eluate was diluted 2-fold with 20 mM phosphate buffer. 0.2 ml of the resulting solution was analyzed through HPLC.
(6) The test compound content in the plasma and in the brain was determined relative to the dose of the compound (% ID (injected dose)/g or ml).

[3] = target: T2, Tg mouse intracerebral amyloid plaque (Homo sapiens, UniProt P05067); assay: Investigation of transgenic (Tg) mice with amyloid deposition in their brain (fluorescence microscopy of brain sections after intravenous administration); assay type: in vivo; conditions: Tg2576 mouse, 4 mg/kg intravenous; for Passage through the blood-brain barrier and binding to Tg mouse intracerebral amyloid plaque: 1 hour after administration
T2 construct: from tissue; host or cells: brain of Tg mice (Tg2576 or APPswe2576/Tau JNPL3) after intravenous dosing
T2 sequence (P05067 672-713 limits assumed): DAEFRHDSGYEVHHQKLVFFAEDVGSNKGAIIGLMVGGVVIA

T1 sequence (P05067 672-713 limits assumed): as above

Structure (SMILES) | Binding to (staining of) amyloid β protein in the brain section of an Alzheimer disease patient [1] | Brain Permeability: Brain [2] | Brain Permeability: Plasma [2] | Passage through the blood-brain barrier and binding to Tg mouse intracerebral amyloid plaque [3] | Correspondence of the binding site to the anti-Aβ antibody-stained site of the same section ([3]; antibody 4G8)
CNc1ncc(/C=C/c2nc3ccc(OC(CO)CF)cc3o2)s1 (centres unmarked) [THK-761, (E)-6-[(1-fluoromethyl-2-hydroxy)ethoxy]-2-[2-[2-methylaminothiazol-5-yl]ethenyl]-benzoxazole] | white space arrow indicates amyloid β protein |  |  |  | 
CN(C)c1ncc(/C=C/c2nc3ccc(OC(CO)CF)cc3o2)s1 (centres unmarked) [THK-763, (E)-6-[(1-fluoromethyl-2-hydroxy)ethoxy]-2-[2-[2-dimethylamino-thiazol-5-yl]ethenyl]benzoxazole] | white space arrow indicates amyloid β protein |  |  |  | 
OCC(CF)Oc1ccc2nc(/C=C/c3cnc(N4CCCC4)s3)oc2c1 (centres unmarked) [THK-752, (E)-6-[(1-fluoromethyl-2-hydroxy)ethoxy]-2-[2-[2-(pyrrolidin-1-yl)-thiazol-5-yl]ethenyl]benzoxazole] | white space arrow indicates amyloid β protein | 6.7 % ID/g or ml | 1.9 % ID/g or ml |  | 
FCCOc1ccc2nc(/C=C/c3cnc(N4CCOCC4)s3)oc2c1 [THK-525, 6-(2-fluoro-ethoxy)-2-[2-(2-morpholin-4-yl-thiazol-5-yl)-vinyl]-benzoxazole] | bound to the amyloid β protein | 7.9 % ID/g or ml | 3.1 % ID/g or ml | passed through the blood-brain barrier, and bound to the Tg mouse intracerebral amyloid plaque | 
OCC(CF)Oc1ccc2nc(/C=C/c3cnc(N4CCOCC4)s3)oc2c1 (centres unmarked) [THK-702, (E)-2-[2-(2-morpholinothiazol-5-yl)ethenyl]-6-[(1-fluoromethyl-2-hydroxy)ethoxy]-benzoxazole] | white space arrow indicates amyloid β protein | 5.1 % ID/g or ml | 2.7 % ID/g or ml | passed through the blood-brain barrier, and bound to the amyloid plaque of the Tg mouse | completely corresponded to the anti-Aβ antibody-stained site

Reference: patent US7910579B2, “Benzoxazole derivatives” (Tohoku University, priority 2006, dated 2011)
